Experimental data: patent US8168232B2, “Formulations and methods of using nitric oxide mimetics in cancer treatment” (priority 2000, dated 2012)

Tests used:
[1] = tested on: Bl6F10 metastatic melanoma cells; assay: In vivo experimental metastasis (lung colonization) model; parameters: species or system C57BL6 mice
Method: C57BL6 mice were injected i.v. (tail vein) with a bolus of 5×10^4-10^5 Bl6F10 metastatic melanoma cells. Immediately after the tail vein injection, mice were randomly divided into groups of 15 and mice in each group were placed in plexiglass chambers (approximately 3 L) which were continuously flushed with gas mixtures of 20% O2:balance N2 and 10% O2:balance N2, respectively. […] After a 24 hour exposure to an atmosphere of either 20% O2 or 10% O2, mice were removed from the chambers and placed in regular cages kept at room air. Thirteen days later, mice were sacrificed by cervical dislocation, and lungs were removed and fixed in Bouin's fixative (Sigma). Metastatic nodules (many of which appeared black due to the presence of melanin) on the surface of the lungs were counted visually under a dissecting microscope. Data were expressed as the number of lung nodules per 10^4 cells injected and were analyzed using statistical tests for non-parametric values.
Cells were then removed from plates with trypsin and 5×10^4 cells were injected i.v. (tail vein) into C57BL6 female mice. Some of the cells treated in vitro were plated onto tissue culture dishes to determine colony-forming ability using the protocol described below in the Section I.J.
Following harvesting from culture plates, 5×10^4 cells were injected intravenously (tail vein injections) into 5-7 week old C57Bl/6 female mice. Cells were also plated in tissue culture plates to determine the effect of culture conditions on in vitro colony forming ability. Fourteen days after intravenous inoculation, mice were sacrificed and their lungs were removed and fixed in Bouin's fixative. Both melanotic and amelanotic metastatic colonies were counted under a dissecting microscope. Data were expressed as the number of lung nodules per 5×10^4 viable cells injected (as determined by in vitro colony-forming ability) and were analyzed using statistical tests for non-parametric values.

[2] = tested on: HTR-8/SVneo invasive trophoblast cells; assay: In vitro Matrigel invasion assay, HTR-8/SVneo; format: cell-based; details: Homo sapiens, read-out: inhibition of invasiveness of hypoxic cells
Method: The chambers consist of cell culture inserts, 6.5 mm in diameter and with a 8 μm pore size membrane. Each membrane was coated with 100 μL of a 1 mg/mL solution of Matrigel diluted in cold serum-free culture medium (EX-CELL 300), and allowed to dry in a laminar flow cabinet for approximately 12 hours. The Matrigel was then rehydrated by incubating it with 100 μL of serum-free medium for approximately 1 hour. After rehydration, cell suspensions containing 5.0×10^4 or 1.0×10^5 cells in 100 μL of medium, containing both serum and the nitric oxide treatments, were added to each well. Culture medium containing serum and the respective nitric oxide treatment were then added to each insert. The cells were incubated for 24 hours under either hypoxic (1% O2) or control (20% O2) conditions. Following incubation, the non-invading cells were removed from the upper surface of the membrane by wiping with a cotton swab. The cells on the lower surface of the membrane were fixed for 10 minutes with Carnoy's fixative (25% acetic acid, 75% methanol), and then stained for approximately 3 hours with a 1% toluidine blue, 1% sodium borate solution. […] Invading cells were then viewed under the microscope at 40× magnification and counted. The invasion index for each treatment was calculated by dividing the number of invading cells by the number of cells which invaded under standard conditions. […]

PROXY-1 mRNA = PROXY-1 mRNA levels in HTR-8/SVneo invasive trophoblast cells; format: cell-based, human; details: 1% O2
From the text: PROXY-1 mRNA levels were very low in cells cultured in 20% O2.

HIF-1 = HIF-1 accumulation and transactivating activity; format: cell-based; details: high concentrations (0.1-1 mM); preliminary studies
From the text: The promotor region of uPAR contains binding sites for transcription factors such as activator protein-1 (AP-1), Sp-1/3 and nuclear factor κB (NFκB).

[3] = tested on: metalloproteinase (gelatinase); assay: Zymography of metalloproteinase (gelatinase) secretion by breast cancer cells; format: cell-based, human; details: 10^−11 M GTN, 10^−12 M SNP
Method: The cells were cultured using a serum-free medium (EX-CELL 300). Following incubation, the medium was extracted and centrifuged at 5,000 RPM for 5 minutes. The supernatant was subsequently collected and stored at −80° C. until further use. SDS-polyacrylamide gels were prepared in accordance with well-known procedures. For the analysis of metalloproteinase secretion, the gel contained 0.1% w/v gelatin, and for the analysis of plasminogen activator secretion, the gel was supplemented with 0.1% w/v casein as well as plasminogen (50 μg/mL). The serum-free conditioned medium was then combined with a nonreducing sample loading buffer (0.5 M Tris, 10% SDS, 1% Bromophenol Blue in 2 mL glycerol) in a ratio of 4:1 and was not boiled. Following electrophoresis, the gels underwent two 15 minute washes with 2.5% Triton X-100. This step removed the SDS. After the washes with H2O, the gels were incubated overnight at 37° C. in a solution containing Tris-HCl (pH 7.0) and CaCl2 (5 mM). The gels were stained with 0.4% Coomassie Brilliant Blue R-250 in 40% methanol/10% glacial acetic acid/50% distilled water for approximately 1 hour, and then destained for about 2 hours in 30% methanol/10% glacial acetic acid/60% distilled water. […]

Structure (SMILES): O=[N+]([O-])OCC(CO[N+](=O)[O-])O[N+](=O)[O-] [GTN, glyceryl trinitrate]
- decrease of hypoxia-stimulated lung nodule formation ([1]; cells pre-treated in vitro 12 h, 1% O2, 2×10^−11 M GTN): 85%
- reduction of extent of metastasis ([1]; cells pre-treated in vitro 12 h, 20% oxygen, 2×10^−11 M GTN): more than 60%
- attenuation of L-NMMA metastatic response ([1]; concomitant GTN (10^−10 M) and L-NMMA): 60%
- inhibition at 0.1 µM [2]: 56.2%
- PROXY-1 mRNA levels in hypoxic cells (PROXY-1 mRNA; 10^−7 M GTN): increased
- PROXY-1 mRNA levels in hypoxic cells (PROXY-1 mRNA; 10^−11 M GTN): much lower
- HIF-1 accumulation and transactivating activity (HIF-1): inhibit HIF-1 accumulation and transactivating activity
- gelatinases secreted vs untreated hypoxic cells [3]: decrease in gelatinases secreted
